One assay has as its system WiDr (Colon). Set-up: method as in PMID 31356736. To be noted: cited from earlier work.
For a further assay, the system named is HBL-100 (Breast). Set-up: method as in PMID 31356736. To be noted: cited from earlier work.
The next assay concerns HeLa (Cervix). Set-up: method as in PMID 31356736. To be noted: cited from earlier work.
For the next assay, the system named is LNCaP cells. Description: Antiproliferative activity, sulforhodamine B assay, LNCaP prostate cancer cells. It is filed as cell-based, human. To be noted: Homo sapiens, 48 h, SRB, mean (±SEM). Here is the method:
(§1) In vitro antiproliferative activity of the compounds was determined in cells derived from bladder cancer (T24) and prostate cancer (LNCaP). The cells were incubated in the presence of the compounds for 48 h. The antiproliferative activity was determined using the sulforhodamine B assay. The results were expressed as GI50, which is the drug concentration resulting in a 50% reduction of cellular net growth when compared with the values of untreated control cells. The standard anticancer drug cisplatin was used as a positive control, and furoxan 3 and 11a were also included as ⋅NO donor reference compounds. The results are summarized in Table 2 for the Ugi product 7a, Ugi-Fx (8a) and 8b–g Ugi-furoxan derivatives, and GBB product 10 and 12a–e GBB-furoxan derivatives.
(§2) The T24 cells were grown in McCoy’s 5A (Biological Industries) supplemented with 10% FBS (Capricorn Scientific). The cells were passaged twice per week, and the culture medium was changed with the same frequency. The LNCaP cells were maintained in RPMI media (Biological Industries) supplemented with 10% FBS (Capricorn Scientific) and 10% of its own conditioned medium (complete media). The cells were passaged once per week, and the medium was changed with the same frequency. The HaCaT cells (immortalized human keratinocytes) were cultured in Dulbecco’s modified Eagle medium (Biological Industries) supplemented with 10% FBS (Capricorn Scientific). The cells were passaged twice per week, and the medium was changed with the same frequency. The cell cultures were maintained under a humidified 5% CO2 atmosphere at 37 °C.
(§3) For viability assays, cells were treated with a 0.25% Trypsin–0.05% EDTA solution and plated in 96-well plates in complete medium the day before the experiment. The cells were seeded in a 96-well plate at densities of 8 × 10^3 cells per well for T24 cells, 12.5 × 10^3 cells per well for LNCaP cells, and 10 × 10^3 cells per well for HaCaT cells. The cultures were allowed to attach for 24 h in a humidified 5% CO2 atmosphere at 37 °C. Then, the cells were treated with increasing concentrations of the compounds (0.4–100.0 µM) prepared in complete medium using stock solutions in DMSO and were kept for 48 h in a CO2 incubator. Wells with only media or 0.5% DMSO were added as controls. The antiproliferative activity of the compounds was assayed using the SRB method in at least three independent experiments.
(In general: The SRB assay estimates cell density from bound dye.)

The subject of assay [1] is HaCaT cells. Description: Cytotoxicity in non-cancer keratinocytes, sulforhodamine B assay. It is filed as cell-based. To be noted: HaCaT human keratinocytes, 0.4–100 µM, SRB; mean (±SEM). Here is the method:
As a first approximation of the safety profile of the synthesized compounds and to determine the cytotoxic selectivity against cancer cells, the antiproliferative activity in non-cancer cells was studied. This evaluation was carried out in human keratinocyte HaCaT cells with 0.4–100 µM of the test compounds using the sulforhodamine B assay. The selectivity index (SI) was calculated for these compounds by dividing the GI50 for HaCaT by the GI50 for each cancer cell line. […] The derivatives Ugi-Fx (8a) and 12e stand out, with selectivity indices of 14.5 and 10.8, respectively. […] Concerning the LNCaP prostate cancer cell line, as for the reference drug, no selectivity was observed. […] Therefore, this new GBB-furoxan derivative can be a starting point in the design of new structures with improved selectivity.
as §2, §3

In assay [2] the test system is T24 cells. Description: Antiproliferative activity, sulforhodamine B assay, T24 bladder cancer cells. To be noted: SRB, mean (±SEM). It is filed as cell-based, human. Here is the method:
as §1, §2, §3

Another assay has as its system A549 (Lung). Set-up: method as in PMID 31356736. To be noted: cited from earlier work.
In assay [3] the test system is T24 cells. Description: Antiproliferative activity with hemoglobin (NO scavenger), SRB assay. It is filed as cell-based, human. To be noted: Hb 0 or 50 µM 1 h pretreatment, compounds 10 µM, 48 h, Figure 4. Here is the method: In this context, we next decided to study the effect of ·NO on their antiproliferative activity against T24 cells after incubation with an ·NO scavenger (Hb, hemoglobin). For this purpose, T24 cells were pretreated for 1 h with 0 or 50 µM of Hb and then the ·NO-donor compounds were added at 10 µM for 48 h. […] However, while for some compounds, such as 8d, ·NO release seems to be crucial for the antiproliferative activity, for others, such as Ugi-Fx (8a), other mechanisms would account for its anticancer effect. It is well-known that the action of 3-phenylsulfonylfuroxan derivatives is connected to ⋅NO release due to their interaction with free intracellular thiols or thiol groups of proteins. However, this action may also involve a covalent bond to thiol biomolecules with the concomitant displacement of the phenylsulfonyl group, leading to a cytotoxic adduct accumulation in the cell milieu. […] Further studies to elucidate the possible mechanisms of action involved will be performed.
To investigate the contribution of ⋅NO to the antiproliferative activity of the studied compounds, we tested their effect on T24 bladder cancer cell growth in the absence and presence of Hb. Cells were seeded into a 96-well plate at 8 × 10^3 cells per well and were allowed to attach for 24 h. […] Then, the antiproliferative activity was assessed by the SRB assay in at least three independent experiments. […]

A further assay has as its system T-47D (Breast). Set-up: method as in PMID 31356736. To be noted: cited from earlier work.
The next assay deals with SW1573 (Lung). Set-up: method as in PMID 31356736. To be noted: cited from earlier work.
Assay [4] concerns HaCaT cells. Set-up: method as in PMID 30489292. To be noted: HaCaT human keratinocytes; cited from earlier work.

The text below walks through data of PMC8955377, “Greener Synthesis of Antiproliferative Furoxans via Multicomponent Reactions” (Molecules, 2022).

Like-named read-outs stand apart in the source and are kept apart here.

As for `Cc1ccc(N(C(=O)c2cccc(Oc3no[n+]([O-])c3S(=O)(=O)c3ccccc3)c2)C(C(=O)NC(C)(C)C)c2ccccc2)cc1` (stereo not drawn) [Ugi-Fx (8a), N-[1-(tert-butylaminocarbonyl)-1-phenylmethyl]-N-(4-methylphenyl)-3-[3-(phenylsulfonyl)-[1,2,5]oxadiazol-4-yl N2-oxide]oxyphenylcarboxamide], the GI50 is 3000 nM with WiDr (Colon); 230 nM in the assay on HBL-100 (Breast); 1800 nM in the assay with HeLa (Cervix); 20200 nM with LNCaP cells; 10600 nM in the assay on HaCaT cells [1]; 730 nM in the assay with T24 cells [2] (Homo sapiens, T-24, 48 h). Besides, the GI50 in the assay on A549 (Lung) is 2300 nM; with T-47D (Breast), 1900 nM; in the assay on SW1573 (Lung), 21 nM. Besides, the “GI50 T24” value in the assay with T24 cells [2] (48 h) was “sub-micromolar range”. In addition, the “Effect of hemoglobin on antiproliferative effect (cell growth inhibition)” value in the assay with T24 cells [3] is given as “high antiproliferative activity even in the presence of a ⋅NO scavenger”.

As for `O=S(=O)(c1ccccc1)c1no[n+]([O-])c1S(=O)(=O)c1ccccc1` [compound 2, 3,4-bis(phenylsulfonyl)furoxan], in the assay with HaCaT cells [4], the GI50 was 1470 nM.

In general, GI50 refers to the concentration at which growth is held to half of that of the control.
